Data as given in US20080153795A1, “Medicaments and methods for wound healing” (RENOVO LIMITED, priority 2006, published 2008).

Legend:
[1] = system: human punch biopsy wounds; test: Human punch biopsy wounds, re-epithelialisation by histology; type: in vivo; conditions: 100 μl intradermal 10 minutes before wounding, 3 mm punch biopsy
Excerpt: Healthy male and post-menopausal female volunteers were chosen as the subjects of the study. 44 healthy subjects were recruited to the study, of whom, 40 were healthy males (aged 18-75 years) and 4 were post-menopausal females (aged 53-69 years). The average age of subjects recruited to this study was 42 years. The post-menopausal status of female subjects was confirmed by quantification of serum levels of oestradiol and follicle stimulating hormone (FSH). Serum levels of oestradiol were required to be <90 pmol/L, and follicle stimulating hormone levels >31 IU/L.
Each subject had three wounds treated with active drug, one corresponding to each of three concentrations of the medicaments produced; a fourth wound was treated with placebo control. The test medicaments and placebo control were each administered intradermally, as a single dose, at a volume of 100 μl per wound site (the upper, inner aspect of each arm), 10-minutes before wounding.
Subjects received 3 mm punch biopsies at the sites where the medicaments had been administered. After wounding, all sites received moist wound healing dressings (Standard Care).
Biopsy sites were excised, using a 5 mm punch biopsy, three days after wounding. Excised wounds were preserved for histological assessment of re-epithelialisation by image analysis. All histological assessments of early wound healing events were made using preserved 5 micron-thickness wound sections taken from the widest part of each excised biopsy site. Sections were stained with Haematoxylin and Eosin to aid visualisation of structural features, and measurements made using image analysis software. The distance traveled by the epithelium is derived from two histological measurements: the freehand total wound diameter and the freehand non-epithelialised wound diameter. […] Percentage re-epithelialisation for the new epithelium was calculated as a proportion of the total wound diameter. The average percentage re-epithelialisation value was calculated from the 44 wounds of each treatment group.

[2] = application of 100 μg in a gel to an epidermal surface, six hours from application; cited from earlier work

SMILES | re-epithelialisation three days after wounding ([1]; 0.02 μg/100 μl (0.00002%) medicament) | re-epithelialisation three days after wounding ([1]; 0.1 μg/100 μl (0.0001%) medicament) | re-epithelialisation three days after wounding ([1]; 0.2 μg/100 μl (0.0002%) medicament) | applied oestradiol found in the skin or having passed through the skin [2]
C[C@]12CC[C@@H]3c4ccc(O)cc4CC[C@H]3[C@@H]1CC[C@@H]2O [17β-oestradiol] | 37.4% | 42.3% | 42.6% | 
C[C@]12CC[C@@H]3c4ccc(O)cc4CC[C@H]3[C@@H]1CC[C@@H]2O [oestradiol] |  |  |  | 15.7 µg
